In patent US11155849B2, “IMP-producing microorganism and method of producing IMP using the same” (CJ CHEILJEDANG CORPORATION, priority 2017, dated 2021):

Columns and labels:
[1] = test system: ATCC6872; assay: Resistance/susceptibility of strain ATCC6872 to substances (minimal medium, 1.7% agar); assay type: cell-based, Corynebacterium stationis
Description: (§1) ATCC6872 (10^7 cells/mL to 10^8 cells/mL) was suspended in a phosphate buffer (pH 7.0) or in a citrate buffer (pH 5.5) in order to prepare an ATCC6872-derived IMP-producing strain, and then mutation was induced by UV treatment. The resultants were washed twice with a 0.85% saline solution, and then diluted and smeared on a medium containing an appropriate concentration of a substance to be resistant to a minimal medium containing 1.7% agar. Thereafter, colonies were obtained. Each colony was cultured in a nutrient medium and cultured in a seed medium for 24 hours. After 3 to 4 days of culturing in a fermentation medium, colonies with the highest amount of IMP accumulated in the culture medium were selected. In order to produce a high-concentration IMP producing-strain, and to provide adenine auxotrophy, guanine leakage, lysozyme susceptibility, 3,4-dihydroproline resistance, streptomycin resistance, azetidine carboxylic acid resistance, thiaproline resistance, azaserine resistance, sulfaguanidine resistance, norvaline resistance, and trimethoprim resistance, the procedures above were performed sequentially for each substance.
(§2) The compositions of the media are as follows: • Minimal medium: 2% glucose, 0.3% sodium sulfate, 0.1% […], 0.3% K2HPO4, 0.3% magnesium sulfate, calcium chloride (10 mg/L), iron sulfate (10 mg/L), zinc sulfate (1 mg/L), manganese chloride (3.6 mg/L), L-cysteine (20 mg/L), calcium pantothenate (10 mg/L), thiamine hydrochloride (5 mg/L), biotin (30 μg/L), adenine (20 mg/L), guanine (20 mg/L), pH 7.3 • Nutrient medium: 1% peptone, 1% meat juice, 0.25% sodium chloride, 1% yeast extract, 2% agar, pH 7.2 • Seed medium: 1% glucose, 1% peptone, 1% meat juice, 1% yeast extract, 0.25% sodium chloride, adenine (100 mg/L), guanine (100 mg/L), pH 7.5 • Fermentation medium: 0.1% sodium glutamate, 1% ammonium chloride, 1.2% magnesium sulfate, 0.01% calcium chloride, iron sulfate (20 mg/L), manganese sulfate (20 mg/L), zinc sulfate (20 mg/L), copper sulfate (5 mg/L), L-cysteine (23 mg/L), alanine (24 mg/L), nicotinic acid (8 mg/L), biotin (45 μg/L), thiamin hydrochloride (5 mg/L), adenine (30 mg/L), 1.9% phosphoric acid (85%), 2.55% glucose, 1.45% fructose

[2] = test system: CJI0323; assay type: cell-based, Corynebacterium stationis; details: strain CJI0323
Description: as §1, §2

Row | Compound | resistance [1] [µg/mL] | resistance [2] [µg/mL] | Lysozyme susceptibility [1] [µg/mL] | Lysozyme susceptibility [2] [µg/mL]
1 | O=C(O)C1C=CCN1 (stereo not drawn) [3,4-Dihydroproline] | 1000 | 3500 |  | 
2 | [N-]=[N+]=CC(=O)OC[C@H](N)C(=O)O [Azaserine] | 25 | 100 |  | 
3 | O=C(O)[C@@H]1CCN1 [Azetidine carboxylic acid] | 5000 | 30000 |  | 
4 | CCC[C@H](N)C(=O)O [Norvaline] | 200 | 2000 |  | 
5 | [H]/N=C(/N)N[C@H]1[C@H](O)[C@@H](O)[C@H](O[C@@H]2O[C@@H](C)[C@](O)(C=O)[C@H]2O[C@@H]2O[C@@H](CO)[C@H](O)[C@@H](O)[C@@H]2NC)[C@@H](N/C(N)=N\[H])[C@@H]1O [Streptomycin] | 500 | 2000 |  | 
6 | [H]/N=C(/N)NS(=O)(=O)c1ccc(N)cc1 [Sulfaguanidine] | 50 | 200 |  | 
7 | O=C(O)[C@@H]1CSCN1 [Thiaproline] | 10 | 100 |  | 
8 | COc1cc(Cc2cnc(N)nc2N)cc(OC)c1OC [Trimethoprim] | 20 | 100 |  | 
9 | Lysozyme |  |  | 80 | 8
